Test results reported in the supplement of paper PMC11061612.

How the values were obtained:
AZD5991 = compound: Cc1c2c(nn1C)CSCc1cc(n(C)n1)CSc1cc(c3ccccc3c1)OCCCc1c(C(=O)O)n(C)c3c-2c(Cl)ccc13 [AZD5991]; conditions: max 1 µM
Outline: (§1)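 Cancer cell lines were dosed for 72 hours (final DMSO typically 0.2%) after 24 hours at 37°C and 5% CO2 in 1536-well plates containing 7.5 μl DMEM/F12 or RPMI with 10% FBS. Viability came from CellTiter-Glo 2.0 luminescence, scaled between blank-well and DMSO-well means, and dose responses were fitted to a two-parameter logistic curve with a non-linear mixed effects model. The single-agent IC50 was obtained from this fit.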

Alisertib = compound: COc1cc(Nc2ncc3c(n2)-c2ccc(Cl)cc2C(c2c(F)cccc2OC)=NC3)ccc1C(=O)O [Alisertib]; conditions: max 10 µM
Outline: as §1

Taselisib = compound: Cc1nc(-c2cn3c(n2)-c2ccc(-c4cnn(C(C)(C)C(N)=O)c4)cc2OCC3)n(C(C)C)n1 [Taselisib]; conditions: max 10 µM
Outline: as §1

AZD1390 = compound: CC(C)n1c(=O)n(C)c2cnc3cc(F)c(-c4ccc(OCCCN5CCCCC5)nc4)cc3c21 [AZD1390]; conditions: max 0.3 µM
Outline: as §1

Prexasertib = compound: COc1cccc(OCCCN)c1-c1cc(Nc2cnc(C#N)cn2)n[nH]1 [Prexasertib]; conditions: max 1 µM
Outline: as §1

AZD8186 = compound: C[C@@H](Nc1cc(F)cc(F)c1)c1cc(C(=O)N(C)C)cc2c(=O)cc(N3CCOCC3)oc12 [AZD8186]; conditions: max 10 µM
Outline: as §1

Carboplatin = compound: C1CC(C1)(C(=O)[O-])C(=O)[O-].N.N.[Pt+2] [Carboplatin]; conditions: max 10 µM
Outline: as §1

Venetoclax = compound: CC1(C)CCC(CN2CCN(c3ccc(C(=O)NS(=O)(=O)c4ccc(NCC5CCOCC5)c([N+](=O)[O-])c4)c(Oc4cnc5[nH]ccc5c4)c3)CC2)=C(c2ccc(Cl)cc2)C1 [Venetoclax]; conditions: max 1 µM
Outline: as §1

Trametinib = compound: CC(=O)Nc1cccc(-n2c(=O)n(C3CC3)c(=O)c3c(Nc4ccc(I)cc4F)n(C)c(=O)c(C)c32)c1 [Trametinib]; conditions: max 1 µM
Outline: as §1

AZD7648 = compound: Cc1cc2ncnn2cc1Nc1ncc2c(n1)n(C1CCOCC1)c(=O)n2C [AZD7648]; conditions: max 10 µM
Outline: as §1

5-Fluorouracil = compound: O=c1[nH]cc(F)c(=O)[nH]1 [5-Fluorouracil]; conditions: max 20 µM
Outline: as §1

[1] = compound: O=C(Nc1ccc2[nH]nc(-c3ccncc3)c2c1)[C@@H]1CCN(CC(=O)N2CCN(c3ccc(-c4ncccn4)cc3)CC2)C1; conditions: max 5 µM
Outline: as §1

Gefitinib = compound: COc1cc2ncnc(Nc3ccc(F)c(Cl)c3)c2cc1OCCCN1CCOCC1 [Gefitinib]; conditions: max 10 µM
Outline: as §1

Etoposide = compound: COc1cc([C@@H]2c3cc4c(cc3[C@@H](O[C@@H]3O[C@@H]5CO[C@@H](C)O[C@H]5[C@H](O)[C@H]3O)[C@H]3COC(=O)[C@H]23)OCO4)cc(OC)c1O [Etoposide]; conditions: max 10 µM
Outline: as §1

MK-2206 = compound: NC1(c2ccc(-c3nc4ccn5c(=O)[nH]nc5c4cc3-c3ccccc3)cc2)CCC1 [MK-2206]; conditions: max 10 µM
Outline: as §1

Crizotinib = compound: C[C@@H](Oc1cc(-c2cnn(C3CCNCC3)c2)cnc1N)c1c(Cl)ccc(F)c1Cl [Crizotinib]; conditions: max 10 µM
Outline: as §1

AZD1775 = compound: C=CCn1c(=O)c2cnc(Nc3ccc(N4CCN(C)CC4)cc3)nc2n1-c1cccc(C(C)(C)O)n1 [AZD1775]; conditions: max 3 µM
Outline: as §1

Savolitinib = compound: C[C@@H](c1ccc2nccn2c1)n1nnc2ncc(-c3cnn(C)c3)nc21 [Savolitinib]; conditions: max 1 µM
Outline: as §1

AZD5153 = compound: COc1nnc2ccc(N3CCC(c4ccc(OCCN5CCN(C)C(=O)[C@H]5C)cc4)CC3)nn12 [AZD5153]; conditions: max 1 µM
Outline: as §1

Selumetinib = compound: Cn1cnc2c(F)c(Nc3ccc(Br)cc3Cl)c(C(=O)NOCCO)cc21 [Selumetinib]; conditions: max 10 µM
Outline: as §1

Olaparib = compound: O=C(c1cc(Cc2n[nH]c(=O)c3ccccc23)ccc1F)N1CCN(C(=O)C2CC2)CC1 [Olaparib]; conditions: max 10 µM
Outline: as §1

AZD4320 = compound: CN(CC[C@H](CSC1=CC=CC=C1)NC2=C(C=C(C=C2)S(=O)(=O)NC(=O)C3=CC=C(C=C3)N4CCC(CC4)[C@H](C5=CC=CC=C5C6=CC=C(C=C6)Cl)O)S(=O)(=O)C(F)(F)F)CCO [AZD4320]; conditions: max 1 µM
Outline: as §1

Gemcitabine = compound: Nc1ccn([C@@H]2O[C@H](CO)[C@@H](O)C2(F)F)c(=O)n1 [Gemcitabine]; conditions: max 0.3 µM
Outline: as §1

AZD6738 = compound: C[C@@H]1COCCN1C2=NC(=NC(=C2)C3(CC3)[S@](=N)(=O)C)C4=C5C=CNC5=NC=C4 [AZD6738]; conditions: max 10 µM
Outline: as §1

AZD5363 = compound: C1CN(CCC1(C(=O)N[C@@H](CCO)C2=CC=C(C=C2)Cl)N)C3=NC=NC4=C3C=CN4 [AZD5363]; conditions: max 10 µM
Outline: as §1

Doxorubicin = compound: COc1cccc2c1C(=O)c1c(O)c3c(c(O)c1C2=O)C[C@@](O)(C(=O)CO)C[C@@H]3O[C@H]1C[C@H](N)[C@H](O)[C@H](C)O1 [Doxorubicin]; conditions: max 1 µM
Outline: as §1

SRA737 = compound: N#Cc1cnc(Nc2cc(NC[C@H]3CNCCO3)c(C(F)(F)F)cn2)cn1 [SRA737]; conditions: max 10 µM
Outline: as §1

Paclitaxel = compound: CC(=O)O[C@H]1C(=O)[C@@]2(C)[C@H]([C@H](OC(=O)c3ccccc3)[C@]3(O)C[C@H](OC(=O)[C@H](O)[C@@H](NC(=O)c4ccccc4)c4ccccc4)C(C)=C1C3(C)C)[C@]1(OC(C)=O)CO[C@@H]1C[C@@H]2O [Paclitaxel]; conditions: max 3 µM
Outline: as §1

Lapatinib = compound: CS(=O)(=O)CCNCc1ccc(-c2ccc3ncnc(Nc4ccc(OCc5cccc(F)c5)c(Cl)c4)c3c2)o1 [Lapatinib]; conditions: max 10 µM
Outline: as §1

AZD2811 = compound: CCN(CCO)CCCOc1ccc2c(Nc3cc(CC(=O)Nc4cccc(F)c4)[nH]n3)ncnc2c1 [AZD2811]; conditions: max 1 µM
Outline: as §1

SN-38 = compound: CCc1c2c(nc3ccc(O)cc13)-c1cc3c(c(=O)n1C2)COC(=O)[C@]3(O)CC [SN-38]; conditions: max 0.3 µM
Outline: as §1

AZD0156 = compound: CN(C)CCCOc1ccc(-c2ccc3ncc4c(c3c2)n(C2CCOCC2)c(=O)n4C)cn1 [AZD0156]; conditions: max 3 µM
Outline: as §1

SG3199 = compound: CC1=CN2[C@@H](C1)C=NC3=CC(=C(C=C3C2=O)OC)OCCCCCOC4=C(C=C5C(=C4)N=C[C@@H]6CC(=CN6C5=O)C)OC [SG3199]; conditions: max 0.001 µM
Outline: as §1

Dasatinib = compound: CC1=C(C(=CC=C1)Cl)NC(=O)C2=CN=C(S2)NC3=CC(=NC(=N3)C)N4CCN(CC4)CCO [Dasatinib]; conditions: max 2 µM
Outline: as §1

Palbociclib = compound: CC(=O)c1c(C)c2cnc(Nc3ccc(N4CCNCC4)cn3)nc2n(C2CCCC2)c1=O [Palbociclib]; conditions: max 10 µM
Outline: as §1

Row | Cell Line | IC50, cell viability 72 h (AZD5991) [nM] | IC50, cell viability 72 h (Alisertib) [nM] | IC50, cell viability 72 h (Taselisib) [nM] | IC50, cell viability 72 h (AZD1390) [nM] | IC50, cell viability 72 h (Prexasertib) [nM] | IC50, cell viability 72 h (AZD8186) [nM] | IC50, cell viability 72 h (Carboplatin) [nM] | IC50, cell viability 72 h (Venetoclax) [nM] | IC50, cell viability 72 h (Trametinib) [nM] | IC50, cell viability 72 h (AZD7648) [nM] | IC50, cell viability 72 h (5-Fluorouracil) [nM] | IC50, cell viability 72 h [1] [nM] | IC50, cell viability 72 h (Gefitinib) [nM] | IC50, cell viability 72 h (Etoposide) [nM] | IC50, cell viability 72 h (MK-2206) [nM] | IC50, cell viability 72 h (Crizotinib) [nM] | IC50, cell viability 72 h (AZD1775) [nM] | IC50, cell viability 72 h (Savolitinib) [nM] | IC50, cell viability 72 h (AZD5153) [nM] | IC50, cell viability 72 h (Selumetinib) [nM] | IC50, cell viability 72 h (Olaparib) [nM] | IC50, cell viability 72 h (AZD4320) [nM] | IC50, cell viability 72 h (Gemcitabine) [nM] | IC50, cell viability 72 h (AZD6738) [nM] | IC50, cell viability 72 h (AZD5363) [nM] | IC50, cell viability 72 h (Doxorubicin) [nM] | IC50, cell viability 72 h (SRA737) [nM] | IC50, cell viability 72 h (Paclitaxel) [nM] | IC50, cell viability 72 h (Lapatinib) [nM] | IC50, cell viability 72 h (AZD2811) [nM] | IC50, cell viability 72 h (SN-38) [nM] | IC50, cell viability 72 h (AZD0156) [nM] | IC50, cell viability 72 h (SG3199) [nM] | IC50, cell viability 72 h (Dasatinib) [nM] | IC50, cell viability 72 h (Palbociclib) [nM]
1 | Mo-T (Other Blood Carcinomas) | > 1000 | > 10000 | > 10000 | > 300 | > 1000 | > 10000 | > 10000 | > 1000 | > 1000 | > 10000 | > 20000 | > 5000 | > 10000 | 1090 | > 10000 | > 10000 | 790 | > 1000 | 343 | > 10000 | > 10000 | 671 | 52.6 | > 10000 | > 10000 | 217 | > 10000 | 106 | > 10000 | > 1000 | 44 | > 3000 | > 1 | > 2000 | > 10000
2 | NCI-H522 (Lung Adenocarcinoma) | > 1000 | > 10000 | > 10000 | > 300 | > 1000 | > 10000 | > 10000 | > 1000 | > 1000 | > 10000 | > 20000 | > 5000 | > 10000 | > 10000 | > 10000 | > 10000 | > 3000 | > 1000 | > 1000 | > 10000 | > 10000 | > 1000 | > 300 | > 10000 | > 10000 | > 1000 | > 10000 | 59.5 | > 10000 | > 1000 | > 300 | > 3000 | > 1 | > 2000 | > 10000
3 | NCI-H1355 (Lung Adenocarcinoma) | > 1000 | > 10000 | 5790 | > 300 | 86.5 | > 10000 | > 10000 | > 1000 | > 1000 | > 10000 | > 20000 | > 5000 | > 10000 | > 10000 | > 10000 | > 10000 | > 3000 | > 1000 | > 1000 | > 10000 | > 10000 | > 1000 | > 300 | 8560 | > 10000 | > 1000 | > 10000 | 42.9 | > 10000 | > 1000 | > 300 | > 3000 | > 1 | > 2000 | > 10000
4 | NCI-H1993 (Lung Adenocarcinoma) | > 1000 | > 10000 | 4520 | > 300 | 62.5 | > 10000 | > 10000 | > 1000 | 89.4 | > 10000 | 9360 | 3250 | > 10000 | 6590 | 4430 | 309 | 1340 | 22 | > 1000 | 9990 | > 10000 | 383 | 15.5 | > 10000 | 5220 | 249 | > 10000 | 11.2 | > 10000 | > 1000 | 262 | > 3000 | > 1 | > 2000 | > 10000
5 | OE33 (Esophageal Adenocarcinoma) | > 1000 | > 10000 | > 10000 | > 300 | 43.5 | > 10000 | > 10000 | > 1000 | > 1000 | > 10000 | > 20000 | > 5000 | > 10000 | > 10000 | > 10000 | > 10000 | 1590 | > 1000 | > 1000 | > 10000 | > 10000 | > 1000 | 170 | 2590 | > 10000 | > 1000 | 7720 | 736 | > 10000 | > 1000 | 199 | > 3000 | > 1 | > 2000 | > 10000
